# Read-outs that look alike come from different tables or passages of the source.
# Assays:
# Type in all cases: cell-based
# alpha2C receptor = target: T1, alpha2C receptor (Homo sapiens, UniProt P18825); assay: Receptor Selection and Amplification Technology (RSAT) assay, Alpha 2C; conditions: RSAT, transfected NIH-3T3 cells with Gq/i5; not active = at concentrations less than 10 micromolar
# T1 construct: expressed in transfected cells; host or cells: NIH-3T3 cells
# T1 sequence (P18825 1-462): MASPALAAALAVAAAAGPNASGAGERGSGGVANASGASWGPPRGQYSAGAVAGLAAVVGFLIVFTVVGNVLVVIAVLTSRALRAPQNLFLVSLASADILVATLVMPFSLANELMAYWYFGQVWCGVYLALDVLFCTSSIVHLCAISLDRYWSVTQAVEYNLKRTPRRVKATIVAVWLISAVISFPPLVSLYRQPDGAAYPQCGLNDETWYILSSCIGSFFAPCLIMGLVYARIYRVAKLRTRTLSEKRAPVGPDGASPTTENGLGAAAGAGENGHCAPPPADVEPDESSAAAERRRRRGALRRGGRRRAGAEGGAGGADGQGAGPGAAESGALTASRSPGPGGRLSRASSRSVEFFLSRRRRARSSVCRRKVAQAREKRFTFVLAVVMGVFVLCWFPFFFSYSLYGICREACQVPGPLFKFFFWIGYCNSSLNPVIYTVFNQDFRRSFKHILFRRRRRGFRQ
# Method: (§1) Receptor Selection and Amplification Technology (RSAT) Assay
# (§2) The RSAT assay measures a receptor-mediated loss of contact inhibition that results in selective proliferation of receptor-containing cells in a mixed population of confluent cells. The increase in cell number is assessed with an appropriate transfected marker gene such as β-galactosidase, the activity of which can be easily measured in a 96-well format. Receptors that activate the G protein, Gq, elicit this response. Alpha2 receptors, which normally couple to Gi, activate the RSAT response when coexpressed with a hybrid Gq protein that has a Gi receptor recognition domain, called Gq/i5.
# (§3) NIH-3T3 cells are plated at a density of 2×10^6 cells in 15 cm dishes and maintained in Dulbecco's modified Eagle's medium supplemented with 10% calf serum. One day later, cells are cotransfected by calcium phosphate precipitation with mammalian expression plasmids encoding p-SV-β-galactosidase (5-10 μg), receptor (1-2 μg) and G protein (1-2 μg). 40 μg salmon sperm DNA may also be included in the transfection mixture. […] Cells are thawed and 100 μl added to 100 μl aliquots of various concentrations of drugs in triplicate in 96-well dishes. Incubations continue 72-96 hr at 37° C. After washing with phosphate-buffered saline, β-galactosidase enzyme activity is determined by adding 200 μl of the chromogenic substrate (consisting of 3.5 mM o-nitrophenyl-β-D-galactopyranoside and 0.5% nonidet P-40 in phosphate buffered saline), incubating overnight at 30° C. and measuring optical density at 420 nm. The absorbance is a measure of enzyme activity, which depends on cell number and reflects a receptor-mediated cell proliferation. The efficacy or intrinsic activity is calculated as a ratio of the maximal effect of the drug to the maximal effect of a standard full agonist for each receptor subtype. Brimonidine, also called UK14304, the chemical structure of which is shown below, is used as the standard agonist for the alpha2A, alpha2B and alpha2C receptors. The EC50 is the concentration at which the drug effect is half of its maximal effect.
# (§4) EC50 values are nanomolar. NA stands for “not active” at concentrations less than 10 micromolar. IA stands for “intrinsic activity.”
# alpha2B receptor = target: T2, alpha2B receptor (Homo sapiens, UniProt P18089); assay: Receptor Selection and Amplification Technology (RSAT) assay, Alpha 2B; conditions: for EC50: transfected NIH-3T3 cells with Gq/i5, not active = at concentrations less than 10 micromolar; for Alpha 2B IA (intrinsic activity): ratio of maximal effect to that of standard full agonist brimonidine (UK14304)
# T2 construct: expressed in transfected cells; host or cells: NIH-3T3 cells
# T2 sequence (P18089 1-450): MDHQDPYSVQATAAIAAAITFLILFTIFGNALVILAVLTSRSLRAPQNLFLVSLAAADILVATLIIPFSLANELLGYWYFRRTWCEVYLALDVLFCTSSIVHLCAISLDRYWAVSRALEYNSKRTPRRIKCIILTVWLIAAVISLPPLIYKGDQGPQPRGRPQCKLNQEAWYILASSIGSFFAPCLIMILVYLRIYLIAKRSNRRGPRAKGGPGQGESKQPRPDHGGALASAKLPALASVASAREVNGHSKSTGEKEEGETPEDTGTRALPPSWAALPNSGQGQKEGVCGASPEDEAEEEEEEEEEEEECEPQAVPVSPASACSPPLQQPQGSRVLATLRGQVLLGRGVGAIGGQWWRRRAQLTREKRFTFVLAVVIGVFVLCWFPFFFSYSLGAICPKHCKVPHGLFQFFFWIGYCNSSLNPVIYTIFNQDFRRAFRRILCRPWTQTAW
# Method: as §1, §2
# NIH-3T3 cells are plated at a density of 2×10^6 cells in 15 cm dishes and maintained in Dulbecco's modified Eagle's medium supplemented with 10% calf serum. One day later, cells are cotransfected by calcium phosphate precipitation with mammalian expression plasmids encoding p-SV-β-galactosidase (5-10 μg), receptor (1-2 μg) and G protein (1-2 μg). 40 μg salmon sperm DNA may also be included in the transfection mixture. Fresh media is added on the following day and 1-2 days later, cells are harvested and frozen in 50 assay aliquots. Cells are thawed and 100 μl added to 100 μl aliquots of various concentrations of drugs in triplicate in 96-well dishes. Incubations continue 72-96 hr at 37° C. After washing with phosphate-buffered saline, β-galactosidase enzyme activity is determined by adding 200 μl of the chromogenic substrate (consisting of 3.5 mM o-nitrophenyl-β-D-galactopyranoside and 0.5% nonidet P-40 in phosphate buffered saline), incubating overnight at 30° C. and measuring optical density at 420 nm. The absorbance is a measure of enzyme activity, which depends on cell number and reflects a receptor-mediated cell proliferation. The efficacy or intrinsic activity is calculated as a ratio of the maximal effect of the drug to the maximal effect of a standard full agonist for each receptor subtype. Brimonidine, also called UK14304, the chemical structure of which is shown below, is used as the standard agonist for the alpha2A, alpha2B and alpha2C receptors. The EC50 is the concentration at which the drug effect is half of its maximal effect.
# The results of the RSAT assay with several exemplary compounds of the invention are disclosed in Table 1 above together with the chemical formulas of these exemplary compounds. EC50 values are nanomolar. NA stands for “not active” at concentrations less than 10 micromolar. IA stands for “intrinsic activity.”
# alpha2A receptor = target: T3, alpha2A receptor (Homo sapiens, UniProt P08913); assay: Receptor Selection and Amplification Technology (RSAT) assay, Alpha 2A; conditions: for Alpha 2A EC50: RSAT, transfected NIH-3T3 cells with Gq/i5, not active = at concentrations less than 10 micromolar
# T3 construct: expressed in transfected cells; host or cells: NIH-3T3 cells
# T3 sequence (P08913 1-465): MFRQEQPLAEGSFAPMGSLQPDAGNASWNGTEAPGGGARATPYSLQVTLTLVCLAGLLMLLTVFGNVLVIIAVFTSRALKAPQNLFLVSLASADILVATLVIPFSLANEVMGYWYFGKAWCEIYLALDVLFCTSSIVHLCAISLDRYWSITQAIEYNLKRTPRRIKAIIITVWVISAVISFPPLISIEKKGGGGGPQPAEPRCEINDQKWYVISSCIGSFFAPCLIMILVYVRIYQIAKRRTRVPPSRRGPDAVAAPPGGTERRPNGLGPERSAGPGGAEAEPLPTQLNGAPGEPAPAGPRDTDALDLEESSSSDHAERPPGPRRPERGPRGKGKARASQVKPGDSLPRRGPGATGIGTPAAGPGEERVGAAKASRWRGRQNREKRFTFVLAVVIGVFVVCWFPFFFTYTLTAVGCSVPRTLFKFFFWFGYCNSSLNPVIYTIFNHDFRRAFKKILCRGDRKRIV
# Method: as §1, §2, §3, §4
Structure (SMILES),Alpha 2C EC50 (alpha2C receptor),"EC50 (alpha2B receptor; RSAT, read-out: Alpha 2B EC50) [nM]",Alpha 2B IA (intrinsic activity) (alpha2B receptor),Alpha 2A EC50 (alpha2A receptor),"EC50 (alpha2B receptor; Alpha 2B EC50, RSAT) [nM]",EC50 (alpha2A receptor) [nM],Alpha 2A IA (intrinsic activity) (alpha2A receptor; ratio of maximal effect to that of standard full agonist brimonidine (UK14304))
O=C(NCCF)NC(Cc1ccccc1)C1CCCC1 (centres unmarked) [1-(1-cyclopentyl-2-phenylethyl)-3-(2-fluoroethyl)urea],not active,378,0.6,not active,,,
O=C(NCCF)NC(Cc1ccccc1F)c1ccncc1 (centres unmarked) [1-(2-fluoro-ethyl)-3-[2-(2-fluoro-phenyl)-1-pyridin-4-yl-ethyl]-urea],not active,2120,0.53,not active,,,
Cc1cccc(C(Cc2cccs2)NC(=O)NCCF)c1 (centres unmarked) [1-(2-fluoro-ethyl)-3-(2-thiophen-2-yl-1-m-tolyl-ethyl)-urea],not active,37,1.08,not active,,,
Cc1cccc(C(Cc2ccccc2F)NC(=O)NCCF)c1 (centres unmarked),not active,13.8,1.02,not active,,,
O=C(NCCF)NC(Cc1cccc(F)c1)c1cccnc1 (centres unmarked) [1-(2-fluoro-ethyl)-3-[2-(3-fluoro-phenyl)-1-pyridin-3-yl-ethyl]-urea],not active,1990,0.41,not active,,,
O=C(NCCF)NC(Cc1ccccc1)c1cccc2ccccc12 (centres unmarked) [1-(2-fluoroethyl)-3-[1-(1-naphthyl)-2-phenylethyl]urea],not active,160,0.77,not active,,,
O=C(NCCF)NC(Cc1ccccc1F)c1ccccc1 (centres unmarked) [1-(2-fluoroethyl)-3-[2-(2-fluorophenyl)-1-phenylethyl]urea],not active,12.9,0.96,not active,,,
Cc1cccc(C(Cc2ccncc2)NC(=O)NCCF)c1 (centres unmarked) [1-(2-fluoro-ethyl)-3-(2-pyridin-4-yl-1-m-tolyl-ethyl)-urea],not active,,1.1,,37.7,341,0.44
Cc1cccc(C(Cc2ccc(F)cc2)NC(=O)NCCF)c1 (centres unmarked),not active,42.9,0.88,not active,,,
"Cc1cccc(C(Cc2cccc(F)c2F)NC(=O)NCCF)c1 (centres unmarked) [1-[2-(2,3-difluoro-phenyl)-1-m-tolyl-ethyl]-3-(2-fluoro-ethyl)-urea]",not active,20.5,1.02,not active,,,
Cc1cccc(C(Cc2ccsc2)NC(=O)NCCF)c1 (centres unmarked) [1-(2-Fluoro-ethyl)-3-(2-thiophen-3-yl-1-m-tolyl-ethyl)-urea],not active,63.4,1.0,not active,,,
"Cc1cccc(C(Cc2cc(F)ccc2F)NC(=O)NCCF)c1 (centres unmarked) [1-[2-(2,5-difluoro-phenyl)-1-m-tolyl-ethyl]-3-(2-fluoro-ethyl)-urea]",not active,21.3,1.02,not active,,,
O=C(NCCF)NC(Cc1ccc(F)cc1)c1ccccc1 (centres unmarked) [1-(2-fluoroethyl)-3-[2-(4-fluorophenyl)-1-phenylethyl]urea],not active,51.3,0.93,not active,,,
O=C(NCCF)NC(Cc1ccccc1)c1ccc(F)cc1 (centres unmarked),not active,299,0.71,not active,,,
"O=C(NCCF)NC(Cc1cc(F)ccc1F)c1cccnc1 (centres unmarked) [1-[2-(2,5-difluoro-phenyl)-1-pyridin-3-yl-ethyl]-3-(2-fluoro-ethyl)-urea]",not active,611,1.02,not active,,,
"Cc1cccc(C(Cc2ccccc2)NC(=O)NCCF)c1 (centres unmarked) [drawing 72, 1-(2-fluoroethyl)-3-[1-(3-methylphenyl)-2-phenylethyl]urea]",not active,29.8,0.91,not active,,,

# Reference: patent publication US7709507B2 (Allergan, Inc., priority 2006, dated 2010)
